Results as given in ChEMBL document CHEMBL1255477, “In vitro properties of BAL30072, a novel siderophore sulfactam with activity against multiresistant gram-negative bacilli” (Antimicrob Agents Chemother, 2010).

What was measured:
Acinetobacter sp. = experiment: Antimicrobial activity against Acinetobacter sp. by broth dilution method; assay type: functional
Pseudomonas aeruginosa [1] = conditions: PAO1
Description: Antimicrobial activity against Pseudomonas aeruginosa PAO1 by broth dilution method

Pseudomonas aeruginosa [2] = experiment: Antimicrobial activity against mexAB-oprM protein and mexZ deficient Pseudomonas aeruginosa PAO267 by broth dilution method; assay type: functional
Pseudomonas aeruginosa [3] = experiment: Antimicrobial activity against Pseudomonas aeruginosa BA(C1-106) selected after 25 ug/ml of compound exposure by broth dilution method; assay type: functional
Pseudomonas aeruginosa [4] = experiment: Antimicrobial activity against mexAB-oprM protein and mexCD-oprJ deficient Pseudomonas aeruginosa PAO238 by broth dilution method; assay type: functional
Pseudomonas aeruginosa [5] = experiment: Antimicrobial activity against Pseudomonas aeruginosa BA(C2-107) selected after 25 ug/ml of compound exposure by broth dilution method; assay type: functional
Pseudomonas aeruginosa [6] = experiment: Antimicrobial activity against Pseudomonas aeruginosa BA by broth dilution method; assay type: functional
Pseudomonas aeruginosa [7] = experiment: Antimicrobial activity against mexAB-oprM, mexCD-oprJ, mexEF-oprN, mexJK, mexXY, opmH and pscC gene deficient Pseudomonas aeruginosa PAO750 by broth dilution method; assay type: functional
Pseudomonas aeruginosa [8] = experiment: Antimicrobial activity against mexAB-oprM protein and mexCD-oprJ deficient Pseudomonas aeruginosa PAO253 overexpressing MexEF-OprN gene by broth dilution method; assay type: functional
Pseudomonas aeruginosa [9] = experiment: Antimicrobial activity against Pseudomonas aeruginosa B4 by broth dilution method; assay type: functional
Pseudomonas aeruginosa [10] = experiment: Antimicrobial activity against Pseudomonas aeruginosa by broth dilution method; assay type: functional
Pseudomonas aeruginosa [11] = experiment: Antimicrobial activity against oprD protein deficient Pseudomonas aeruginosa C2 by broth dilution method; assay type: functional
[12] = substrate: CC1(C)[C@H](NC(=O)/C(=N\OCc2cc(=O)c(O)cn2O)c2csc(N)n2)C(=O)N1OS(=O)(=O)O; conditions: Escherichia coli; ATCC 25922
Description: (§1) Binding affinity to Escherichia coli ATCC 25922 AmpC

[13] = substrate: C[C@H]1[C@H](NC(=O)/C(=N\OC(C)(C)C(=O)O)c2csc(N)n2)C(=O)N1S(=O)(=O)O; conditions: Escherichia coli; ATCC 25922
Description: as §1

[14] = substrate: CC1(C)[C@H](NC(=O)/C(=N\OCc2cc(=O)c(O)cn2O)c2csc(N)n2)C(=O)N1OS(=O)(=O)O; conditions: Escherichia coli; ATCC 25922; remark: listed apart in the source
Description: (§2) Ratio of Kcat to Km for Escherichia coli ATCC 25922 AmpC

[15] = substrate: C[C@H]1[C@H](NC(=O)/C(=N\OC(C)(C)C(=O)O)c2csc(N)n2)C(=O)N1S(=O)(=O)O; conditions: Escherichia coli; ATCC 25922; remark: listed apart in the source
Description: as §2

POLYMYXIN B was tested, and the MIC50 (Acinetobacter sp.) was 4 mg/L, the MIC90 (Acinetobacter sp.) was 32 mg/L and the MIC (Pseudomonas aeruginosa [1]) was 8 mg/L. The MIC (Pseudomonas aeruginosa [2]) was 8 mg/L, the MIC (Pseudomonas aeruginosa [3]) was 2 mg/L and the MIC (Pseudomonas aeruginosa [4]) was 8 mg/L. The MIC (Pseudomonas aeruginosa [5]) was 4 mg/L, the MIC (Pseudomonas aeruginosa [6]) was 4 mg/L and the MIC (Pseudomonas aeruginosa [7]) was 8 mg/L. It also gave an MIC (Pseudomonas aeruginosa [8]) of 4 mg/L, an MIC (Pseudomonas aeruginosa [9]) of 2 mg/L and an MIC50 (Pseudomonas aeruginosa [10]) of 4 mg/L. It also gave an MIC90 (Pseudomonas aeruginosa [10]) of 8 mg/L and an MIC (Pseudomonas aeruginosa [11]) of 4 mg/L.

B1: AmpC (Escherichia coli), Q83TT7 (peptide)
chain: MFKTTLCALLITASCSTFAA
B1 gave a Km [12] of 100 µM, a kcat [12] of 0.004 s⁻¹ and a Km [13] of 21 µM. For the same molecule, the kcat [13] was 6e-05 s⁻¹, the kcat/Km [14] was 38 M⁻¹ s⁻¹ and the kcat/Km [15] was 2.9 M⁻¹ s⁻¹.
